According to ChEMBL document CHEMBL5715260, “Selectivity Literature for EUbOPEN Chemogenomic Library” (2024):
One block for each compound: values may come before it.

How the values were obtained:
Parameters in all cases: recommended concentration 1 uM
[1] = molecular target: T1, Alpha trans-inducing protein (Human alphaherpesvirus 1) (UniProt A0A5J6DW59); test: Selectivity interaction (Reporter gene assay) EUB0001164a UL48
[2] = molecular target: Nuclear receptor subfamily 4immunitygroup A member 1 (Homo sapiens) (UniProt P22736); test: Selectivity interaction (Reporter gene assay) EUB0001164a NR4A1
Chain of Nuclear receptor subfamily 4immunitygroup A member 1 (Homo sapiens) (P22736 whole entry): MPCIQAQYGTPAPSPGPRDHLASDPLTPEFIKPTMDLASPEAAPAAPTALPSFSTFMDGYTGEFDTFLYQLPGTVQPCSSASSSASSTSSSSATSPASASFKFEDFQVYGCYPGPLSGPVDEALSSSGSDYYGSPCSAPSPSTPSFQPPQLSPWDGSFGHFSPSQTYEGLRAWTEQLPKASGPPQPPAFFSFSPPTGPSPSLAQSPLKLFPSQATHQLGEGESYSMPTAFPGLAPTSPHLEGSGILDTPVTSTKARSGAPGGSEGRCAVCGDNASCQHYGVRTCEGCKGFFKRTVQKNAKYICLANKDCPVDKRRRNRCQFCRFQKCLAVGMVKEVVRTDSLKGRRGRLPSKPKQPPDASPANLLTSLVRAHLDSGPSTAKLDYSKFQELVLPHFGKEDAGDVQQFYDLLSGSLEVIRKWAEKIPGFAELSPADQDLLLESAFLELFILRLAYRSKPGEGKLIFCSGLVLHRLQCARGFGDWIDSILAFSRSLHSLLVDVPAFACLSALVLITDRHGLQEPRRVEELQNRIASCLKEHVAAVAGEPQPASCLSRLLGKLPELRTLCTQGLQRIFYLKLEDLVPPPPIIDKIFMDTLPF

[3] = molecular target: T2, Nuclear receptor subfamily 2 group C member 1 (Homo sapiens) (UniProt P13056); test: Selectivity interaction (Reporter gene assay) EUB0001164a NR2C1
T2 sequence (whole entry): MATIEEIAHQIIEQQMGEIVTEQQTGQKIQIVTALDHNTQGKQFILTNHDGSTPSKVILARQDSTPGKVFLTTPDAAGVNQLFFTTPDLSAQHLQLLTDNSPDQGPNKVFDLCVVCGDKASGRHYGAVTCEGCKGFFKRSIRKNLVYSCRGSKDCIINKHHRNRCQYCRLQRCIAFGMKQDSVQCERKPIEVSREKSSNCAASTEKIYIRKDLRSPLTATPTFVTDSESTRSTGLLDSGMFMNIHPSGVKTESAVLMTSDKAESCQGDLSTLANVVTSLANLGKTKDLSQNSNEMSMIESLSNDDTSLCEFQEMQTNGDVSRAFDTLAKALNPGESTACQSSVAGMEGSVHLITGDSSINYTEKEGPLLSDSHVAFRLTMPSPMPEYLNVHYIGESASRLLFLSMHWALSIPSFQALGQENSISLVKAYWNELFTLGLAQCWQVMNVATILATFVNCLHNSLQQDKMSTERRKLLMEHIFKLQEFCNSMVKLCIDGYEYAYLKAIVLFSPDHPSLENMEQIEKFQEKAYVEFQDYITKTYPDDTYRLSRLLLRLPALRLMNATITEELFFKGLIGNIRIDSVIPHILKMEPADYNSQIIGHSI

[4] = molecular target: T3, Hepatocyte nuclear factor 4-alpha (Homo sapiens) (UniProt P41235); test: Selectivity interaction (Reporter gene assay) EUB0001164a HNF4A
T3 sequence (whole entry): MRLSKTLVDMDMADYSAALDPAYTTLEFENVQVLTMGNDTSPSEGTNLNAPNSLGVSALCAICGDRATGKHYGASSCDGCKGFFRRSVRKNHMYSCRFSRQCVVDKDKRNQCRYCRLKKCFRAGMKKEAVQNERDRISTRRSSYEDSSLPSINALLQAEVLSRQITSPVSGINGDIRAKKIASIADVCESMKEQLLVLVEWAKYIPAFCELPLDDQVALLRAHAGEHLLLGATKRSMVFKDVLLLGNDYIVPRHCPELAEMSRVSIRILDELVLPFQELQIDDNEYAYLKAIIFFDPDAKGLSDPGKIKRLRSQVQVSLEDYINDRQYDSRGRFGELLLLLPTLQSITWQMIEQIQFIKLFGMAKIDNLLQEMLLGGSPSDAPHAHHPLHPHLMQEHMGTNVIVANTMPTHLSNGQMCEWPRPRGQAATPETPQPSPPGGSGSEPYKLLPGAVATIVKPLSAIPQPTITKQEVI

[5] = molecular target: Steroidogenic factor 1 (Homo sapiens) (UniProt Q13285); test: Selectivity interaction (Reporter gene assay) EUB0001164a NR5A1
Chain of Steroidogenic factor 1 (Homo sapiens) (Q13285 whole entry): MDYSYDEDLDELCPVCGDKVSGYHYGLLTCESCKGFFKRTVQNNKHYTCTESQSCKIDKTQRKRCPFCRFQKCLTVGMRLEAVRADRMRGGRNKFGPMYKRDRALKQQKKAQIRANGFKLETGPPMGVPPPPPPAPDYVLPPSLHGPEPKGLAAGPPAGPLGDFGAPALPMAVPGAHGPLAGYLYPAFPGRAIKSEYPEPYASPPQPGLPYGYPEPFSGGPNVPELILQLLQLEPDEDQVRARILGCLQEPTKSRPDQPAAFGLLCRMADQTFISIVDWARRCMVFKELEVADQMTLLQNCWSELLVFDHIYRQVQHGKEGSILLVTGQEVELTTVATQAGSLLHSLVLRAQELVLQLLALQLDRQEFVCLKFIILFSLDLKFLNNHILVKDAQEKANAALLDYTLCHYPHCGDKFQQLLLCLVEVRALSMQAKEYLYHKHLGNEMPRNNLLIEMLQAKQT

[6] = molecular target: Nuclear receptor subfamily 2 group E member 1 (Homo sapiens) (UniProt Q9Y466); test: Selectivity interaction (Reporter gene assay) EUB0001164a NR2E1
Chain of Nuclear receptor subfamily 2 group E member 1 (Homo sapiens) (Q9Y466 whole entry): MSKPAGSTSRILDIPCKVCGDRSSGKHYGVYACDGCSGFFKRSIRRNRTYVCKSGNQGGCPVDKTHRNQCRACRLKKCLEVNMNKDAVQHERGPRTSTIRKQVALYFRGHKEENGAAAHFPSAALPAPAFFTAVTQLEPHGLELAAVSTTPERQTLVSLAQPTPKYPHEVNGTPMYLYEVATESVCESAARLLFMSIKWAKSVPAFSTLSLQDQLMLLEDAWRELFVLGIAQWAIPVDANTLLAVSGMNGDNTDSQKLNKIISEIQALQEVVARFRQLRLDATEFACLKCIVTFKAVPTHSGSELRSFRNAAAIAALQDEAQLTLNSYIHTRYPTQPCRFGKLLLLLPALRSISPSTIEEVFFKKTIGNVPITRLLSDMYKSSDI

[7] = molecular target: T4, Retinoic acid receptor RXR-alpha (Homo sapiens) (UniProt P19793); test: Selectivity interaction (Reporter gene assay) EUB0001164a RXRA; conditions: reference bexarotene 1 uM, Selectivity number of off-targets 0.0, Selectivity number of targets 1.0, Source Knowledge inhouse
T4 sequence (whole entry): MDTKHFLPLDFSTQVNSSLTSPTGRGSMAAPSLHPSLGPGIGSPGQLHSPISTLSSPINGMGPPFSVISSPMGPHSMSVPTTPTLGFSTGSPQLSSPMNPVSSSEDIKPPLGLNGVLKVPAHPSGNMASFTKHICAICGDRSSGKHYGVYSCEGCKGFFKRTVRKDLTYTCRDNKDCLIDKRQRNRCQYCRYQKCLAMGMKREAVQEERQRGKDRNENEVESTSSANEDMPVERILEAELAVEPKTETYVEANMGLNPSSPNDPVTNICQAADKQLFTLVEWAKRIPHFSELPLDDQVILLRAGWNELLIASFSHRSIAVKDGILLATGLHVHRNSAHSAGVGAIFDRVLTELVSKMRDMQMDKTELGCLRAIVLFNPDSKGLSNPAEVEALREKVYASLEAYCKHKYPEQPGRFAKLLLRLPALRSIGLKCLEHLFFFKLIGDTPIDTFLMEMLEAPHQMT

[8] = molecular target: Steroidogenic factor 1 (Homo sapiens) (UniProt Q13285); test: Selectivity interaction (Reporter gene assay) EUB0001158a NR5A1
[9] = molecular target: T1, Alpha trans-inducing protein (Human alphaherpesvirus 1); test: Selectivity interaction (Reporter gene assay) EUB0001158a UL48
[10] = molecular target: Nuclear receptor subfamily 4immunitygroup A member 1 (Homo sapiens) (UniProt P22736); test: Selectivity interaction (Reporter gene assay) EUB0001158a NR4A1
[11] = molecular target: T2, Nuclear receptor subfamily 2 group C member 1 (Homo sapiens); test: Selectivity interaction (Reporter gene assay) EUB0001158a NR2C1
[12] = molecular target: T3, Hepatocyte nuclear factor 4-alpha (Homo sapiens); test: Selectivity interaction (Reporter gene assay) EUB0001158a HNF4A
[13] = molecular target: T4, Retinoic acid receptor RXR-alpha (Homo sapiens); test: Selectivity interaction (Reporter gene assay) EUB0001158a RXRA; conditions: reference bexarotene 1 uM, Selectivity number of off-targets 0.0, Selectivity number of targets 1.0, Source Knowledge inhouse
[14] = molecular target: Nuclear receptor subfamily 2 group E member 1 (Homo sapiens) (UniProt Q9Y466); test: Selectivity interaction (Reporter gene assay) EUB0001158a NR2E1
[15] = molecular target: T2, Nuclear receptor subfamily 2 group C member 1 (Homo sapiens); test: Selectivity interaction (Reporter gene assay) EUB0001159a NR2C1
[16] = molecular target: T4, Retinoic acid receptor RXR-alpha (Homo sapiens); test: Selectivity interaction (Reporter gene assay) EUB0001159a RXRA; conditions: reference bexarotene 1 uM, Selectivity number of off-targets 0.0, Selectivity number of targets 1.0, Source Knowledge inhouse
[17] = molecular target: T1, Alpha trans-inducing protein (Human alphaherpesvirus 1); test: Selectivity interaction (Reporter gene assay) EUB0001159a UL48
[18] = molecular target: T3, Hepatocyte nuclear factor 4-alpha (Homo sapiens); test: Selectivity interaction (Reporter gene assay) EUB0001159a HNF4A
[19] = molecular target: Steroidogenic factor 1 (Homo sapiens) (UniProt Q13285); test: Selectivity interaction (Reporter gene assay) EUB0001159a NR5A1
[20] = molecular target: Nuclear receptor subfamily 2 group E member 1 (Homo sapiens) (UniProt Q9Y466); test: Selectivity interaction (Reporter gene assay) EUB0001159a NR2E1
[21] = molecular target: Nuclear receptor subfamily 4immunitygroup A member 1 (Homo sapiens) (UniProt P22736); test: Selectivity interaction (Reporter gene assay) EUB0001159a NR4A1
[22] = molecular target: T3, Hepatocyte nuclear factor 4-alpha (Homo sapiens); test: Selectivity interaction (Reporter gene assay) EUB0001160a HNF4A
[23] = molecular target: T2, Nuclear receptor subfamily 2 group C member 1 (Homo sapiens); test: Selectivity interaction (Reporter gene assay) EUB0001160a NR2C1
[24] = molecular target: T1, Alpha trans-inducing protein (Human alphaherpesvirus 1); test: Selectivity interaction (Reporter gene assay) EUB0001160a UL48
[25] = molecular target: Steroidogenic factor 1 (Homo sapiens) (UniProt Q13285); test: Selectivity interaction (Reporter gene assay) EUB0001160a NR5A1
[26] = molecular target: Nuclear receptor subfamily 4immunitygroup A member 1 (Homo sapiens) (UniProt P22736); test: Selectivity interaction (Reporter gene assay) EUB0001160a NR4A1
[27] = molecular target: T4, Retinoic acid receptor RXR-alpha (Homo sapiens); test: Selectivity interaction (Reporter gene assay) EUB0001160a RXRA
[28] = molecular target: Nuclear receptor subfamily 2 group E member 1 (Homo sapiens) (UniProt Q9Y466); test: Selectivity interaction (Reporter gene assay) EUB0001160a NR2E1
[29] = molecular target: T5, Oxysterols receptor LXR-beta (Homo sapiens) (UniProt P55055); test: Selectivity interaction (Reporter gene assay) EUB0001168a NR1H2; conditions: screened at recom. conc., Selectivity number of off-targets 1.0, Selectivity number of targets 19.0, Source Knowledge inhouse
T5 sequence (whole entry): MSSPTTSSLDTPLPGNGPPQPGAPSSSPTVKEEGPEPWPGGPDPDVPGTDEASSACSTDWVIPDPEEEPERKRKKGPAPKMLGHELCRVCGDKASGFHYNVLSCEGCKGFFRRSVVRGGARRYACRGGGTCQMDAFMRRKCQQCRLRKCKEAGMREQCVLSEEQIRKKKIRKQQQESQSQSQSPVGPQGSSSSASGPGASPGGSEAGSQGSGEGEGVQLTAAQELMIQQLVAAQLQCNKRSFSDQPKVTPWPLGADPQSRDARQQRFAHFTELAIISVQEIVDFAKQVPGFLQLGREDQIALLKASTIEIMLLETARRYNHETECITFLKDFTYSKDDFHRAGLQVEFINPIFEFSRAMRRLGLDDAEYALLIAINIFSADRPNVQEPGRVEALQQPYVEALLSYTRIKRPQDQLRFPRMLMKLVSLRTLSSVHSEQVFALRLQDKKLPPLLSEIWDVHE

[30] = molecular target: Nuclear receptor subfamily 4immunitygroup A member 1 (Homo sapiens) (UniProt P22736); test: Selectivity interaction (Reporter gene assay) EUB0001168a NR4A1
[31] = molecular target: T3, Hepatocyte nuclear factor 4-alpha (Homo sapiens); test: Selectivity interaction (Reporter gene assay) EUB0001168a HNF4A
[32] = molecular target: Steroidogenic factor 1 (Homo sapiens) (UniProt Q13285); test: Selectivity interaction (Reporter gene assay) EUB0001168a NR5A1
[33] = molecular target: Nuclear receptor subfamily 2 group E member 1 (Homo sapiens) (UniProt Q9Y466); test: Selectivity interaction (Reporter gene assay) EUB0001168a NR2E1
[34] = molecular target: T1, Alpha trans-inducing protein (Human alphaherpesvirus 1); test: Selectivity interaction (Reporter gene assay) EUB0001168a UL48
[35] = molecular target: T2, Nuclear receptor subfamily 2 group C member 1 (Homo sapiens); test: Selectivity interaction (Reporter gene assay) EUB0001168a NR2C1
[36] = molecular target: T4, Retinoic acid receptor RXR-alpha (Homo sapiens); test: Selectivity interaction (Reporter gene assay) EUB0001168a RXRA; conditions: reference bexarotene 1 uM, Selectivity number of off-targets 0.0, Selectivity number of targets 1.0, Source Knowledge inhouse

T1 sequence (A0A5J6DW59 as listed by the source): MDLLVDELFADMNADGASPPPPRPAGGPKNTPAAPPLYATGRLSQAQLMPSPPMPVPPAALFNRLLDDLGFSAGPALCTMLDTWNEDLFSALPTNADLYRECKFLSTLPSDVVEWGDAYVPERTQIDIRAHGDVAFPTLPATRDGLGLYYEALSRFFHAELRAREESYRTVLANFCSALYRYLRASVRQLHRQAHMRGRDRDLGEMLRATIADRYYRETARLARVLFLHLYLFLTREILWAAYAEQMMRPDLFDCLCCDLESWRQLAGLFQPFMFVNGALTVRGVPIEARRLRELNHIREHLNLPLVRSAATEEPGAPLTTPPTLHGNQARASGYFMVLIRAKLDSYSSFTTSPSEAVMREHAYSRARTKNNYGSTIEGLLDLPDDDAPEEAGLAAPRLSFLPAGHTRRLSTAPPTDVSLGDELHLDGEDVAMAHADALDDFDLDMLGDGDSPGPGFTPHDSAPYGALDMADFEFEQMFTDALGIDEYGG

Compound: CCOC(=O)c1ccc(CN(Cc2ccc(-c3cccc(S(C)(=O)=O)c3)cc2)S(=O)(=O)c2c(C)cc(C)cc2C)o1
P-value [1]: 0.0222 | Fold activation [2]: 1.26 | Fold activation [3]: 1.02 | Fold activation [4]: 1.29 | Fold activation [5]: 1.07 | Remaining activity [6]: 0.776 | Relative activation [7]: 0.903%

Compound: CC(=O)Nc1nc(C)c(S(=O)(=O)Nc2ccc(C(O)(C(F)(F)F)C(F)(F)F)cc2)s1
Remaining activity [8]: 0.814 | P-value [9]: 3.31e-05 | Remaining activity [10]: 0.661 | Remaining activity [11]: 0.684 | Remaining activity [12]: 0.71 | Relative activation [13]: 0.191% | Remaining activity [14]: 0.58

Compound: O=C(O)c1ccnc(N2CC(O)(c3ccc(OCc4c(-c5c(Cl)cccc5Cl)noc4C4CC4)cc3Cl)C2)c1
Fold activation [29]: 5.01 | Fold activation [30]: 1.01 | Fold activation [31]: 1.13 | Fold activation [32]: 1.07 | Fold activation [33]: 1.12 | P-value [34]: 0.0011 | Fold activation [35]: 1.18 | Relative activation [36]: 0.698%

The next lines start with the values.

Remaining activity [15]: 0.852 | Relative activation [16]: 0.288% | P-value [17]: 0.00142 | Remaining activity [18]: 0.994 | Remaining activity [19]: 0.989 | Remaining activity [20]: 0.852 | Remaining activity [21]: 0.905
Compound: CCc1ccc(N(CC(C)C)S(=O)(=O)c2ccc(OCC3CCOCC3)c(CO)c2)cc1

Remaining activity [22]: 0.878 | Fold activation [23]: 1.26 | P-value [24]: 0.00194 | Remaining activity [25]: 0.561 | Remaining activity [26]: 0.922 | Relative activation [27]: 1.19% | Fold activation [28]: 1.21
Compound: OC(c1ccc(-c2ccc(CN3CCN(Cc4ccncc4)CC3)cc2)c(F)c1)(C(F)(F)F)C(F)(F)F
